Values quoted from earlier work as cited in patent US6890568B2, “Method for management of blood glucose levels” (priority 1999, dated 2005).

Tested on: insulin-deficient, streptozotocin-induced rat model of diabetes
Settings: vanadate in the drinking water

In the case of `[O]=[V]([O-])([O-])[O-]` [vanadate], the control of diabetes is listed as “shown to control diabetes” and the side effects is listed as “life-threatening diarrhea”.
